Source: patent US4399132A, “7-Beta-[alpha-syn-methoxyimino-alpha-(2-aminothiazol-4-yl)-aceta mido]-3-[(1,2,3-thiadiazol-5-ylthio)methyl]-3-cephem-4-carboxylic acid and C1 -C6 alkyl derivatives thereof” (American Cyanamid Company, priority 1981, dated 1983)
Values after ≈ are worked out from the molar mass of the structure shown. Like-named read-outs stand apart in the source and are kept apart here. Blank lines part the entries; values can stand above or below the compound they belong to.

Assays:
Test in all cases: Mueller-Hinton agar dilution method (MIC)
Assay type in all cases: cell-based
Staphylococcus aureus = tested on: Staphylococcus aureus
Proteus morganii = conditions: Morganella morganii, strain K-79-25; Table III; read-out: Minimal Inhibitory Concentration
Proteus rettgeri = conditions: Providencia rettgeri; strain N-76-1; Table III; read-out: Minimal Inhibitory Concentration
Klebsiella pneumoniae = conditions: Table III
Enterobacter cloacae = conditions: strain K-79-16, Table III, read-out: Minimal Inhibitory Concentration
Pseudomonas aeruginosa = conditions: read-out: Minimal Inhibitory Concentration
Salmonella sp. = conditions: strain SSC-79-57, Table III, read-out: Minimal Inhibitory Concentration
Text: (§1) The results appear in Tables I, II, and III.

Micrococcus luteus = conditions: strain PCI 1001, Table III, read-out: Minimal Inhibitory Concentration
Text: as §1

Serratia marcescens = conditions: read-out: Minimal Inhibitory Concentration
Salmonella (arizona) = conditions: strain QHC-77-3, Table III, read-out: Minimal Inhibitory Concentration
Enterobacter aerogenes = conditions: Klebsiella aerogenes; strain STFD-79-14; Table III; read-out: Minimal Inhibitory Concentration
Acinetobacter sp. = conditions: read-out: Minimal Inhibitory Concentration
Enterococcus sp. = conditions: Table III
Escherichia coli = conditions: read-out: Minimal Inhibitory Concentration

Compound: CO/N=C(\C(=O)N[C@@H]1C(=O)N2C(C(=O)O)=C(COC(C)=O)CS[C@H]12)c1csc(N)n1 [Compound II]
MIC (Staphylococcus aureus; read-out: Minimal Inhibitory Concentration, beta-lactamase negative, strain SSC 79-3, Table II): 0.5 µg/mL (≈ 1.1 µM)
MIC (Staphylococcus aureus; read-out: Minimal Inhibitory Concentration, beta-lactamase negative, strain SSC 79-5, Table II): 1 µg/mL (≈ 2.2 µM)
MIC (Staphylococcus aureus; read-out: Minimal Inhibitory Concentration, beta-lactamase negative, strain SSC 79-7, Table II): 0.5 µg/mL (≈ 1.1 µM)
MIC (Staphylococcus aureus; read-out: Minimal Inhibitory Concentration, beta-lactamase negative, strain SSC 79-9, Table II): 0.5 µg/mL (≈ 1.1 µM)
MIC (Staphylococcus aureus; read-out: Minimal Inhibitory Concentration, beta-lactamase negative, strain SSC 79-10, Table II): 0.5 µg/mL (≈ 1.1 µM)
MIC (Staphylococcus aureus; read-out: Minimal Inhibitory Concentration, beta-lactamase negative, strain SSC 79-11, Table II): 0.5 µg/mL (≈ 1.1 µM)
MIC (Staphylococcus aureus; read-out: Minimal Inhibitory Concentration, beta-lactamase negative, strain SSC 79-14, Table II): 2 µg/mL (≈ 4.39 µM)
MIC (Staphylococcus aureus; read-out: Minimal Inhibitory Concentration, beta-lactamase negative, strain SSC 79-15, Table II): 2 µg/mL (≈ 4.39 µM)
MIC (Staphylococcus aureus; read-out: Minimal Inhibitory Concentration, beta-lactamase negative, strain SSC 79-17, Table II): 1 µg/mL (≈ 2.2 µM)
MIC (Staphylococcus aureus; read-out: Minimal Inhibitory Concentration, beta-lactamase positive, strain SSC 79-24, Table II): 16 µg/mL (≈ 35.1 µM)
MIC (Staphylococcus aureus; read-out: Minimal Inhibitory Concentration, beta-lactamase positive, strain SSC 79-27, Table II): 1 µg/mL (≈ 2.2 µM)
MIC (Staphylococcus aureus; read-out: Minimal Inhibitory Concentration, beta-lactamase positive, strain SSC 79-28, Table II): 1 µg/mL (≈ 2.2 µM)
MIC (Staphylococcus aureus; read-out: Minimal Inhibitory Concentration, beta-lactamase positive, strain SSC 79-36, Table II): 1 µg/mL (≈ 2.2 µM)
MIC (Staphylococcus aureus; read-out: Minimal Inhibitory Concentration, beta-lactamase positive, strain SSC 79-38, Table II): 1 µg/mL (≈ 2.2 µM)
MIC (Staphylococcus aureus; read-out: Minimal Inhibitory Concentration, beta-lactamase positive, strain SSC 79-39, Table II): 1 µg/mL (≈ 2.2 µM)
MIC (Staphylococcus aureus; read-out: Minimal Inhibitory Concentration, beta-lactamase positive, strain SSC 79-41, Table II): 2 µg/mL (≈ 4.39 µM)
MIC (Staphylococcus aureus; read-out: Minimal Inhibitory Concentration, beta-lactamase positive, strain SSC 79-44, Table II): 1 µg/mL (≈ 2.2 µM)
MIC (Staphylococcus aureus; read-out: Minimal Inhibitory Concentration, beta-lactamase positive, strain SSC 79-47, Table II): 1 µg/mL (≈ 2.2 µM)

MIC (Staphylococcus aureus; beta-lactamase negative, strain SSC 79-3, Table II, read-out: Minimal Inhibitory Concentration): 2 µg/mL (≈ 4.68 µM)
MIC (Staphylococcus aureus; beta-lactamase negative, strain SSC 79-5, Table II, read-out: Minimal Inhibitory Concentration): 2 µg/mL (≈ 4.68 µM)
MIC (Staphylococcus aureus; beta-lactamase negative, strain SSC 79-7, Table II, read-out: Minimal Inhibitory Concentration): 1 µg/mL (≈ 2.34 µM)
MIC (Staphylococcus aureus; beta-lactamase negative, strain SSC 79-9, Table II, read-out: Minimal Inhibitory Concentration): 1 µg/mL (≈ 2.34 µM)
MIC (Staphylococcus aureus; beta-lactamase negative, strain SSC 79-10, Table II, read-out: Minimal Inhibitory Concentration): 1 µg/mL (≈ 2.34 µM)
MIC (Staphylococcus aureus; beta-lactamase negative, strain SSC 79-11, Table II, read-out: Minimal Inhibitory Concentration): 1 µg/mL (≈ 2.34 µM)
MIC (Staphylococcus aureus; beta-lactamase negative, strain SSC 79-14, Table II, read-out: Minimal Inhibitory Concentration): 2 µg/mL (≈ 4.68 µM)
MIC (Staphylococcus aureus; beta-lactamase negative, strain SSC 79-15, Table II, read-out: Minimal Inhibitory Concentration): 4 µg/mL (≈ 9.36 µM)
MIC (Staphylococcus aureus; beta-lactamase negative, strain SSC 79-17, Table II, read-out: Minimal Inhibitory Concentration): 2 µg/mL (≈ 4.68 µM)
MIC (Staphylococcus aureus; beta-lactamase positive, strain SSC 79-24, Table II, read-out: Minimal Inhibitory Concentration): 16 µg/mL (≈ 37.4 µM)
MIC (Staphylococcus aureus; beta-lactamase positive, strain SSC 79-27, Table II, read-out: Minimal Inhibitory Concentration): 2 µg/mL (≈ 4.68 µM)
MIC (Staphylococcus aureus; beta-lactamase positive, strain SSC 79-28, Table II, read-out: Minimal Inhibitory Concentration): 2 µg/mL (≈ 4.68 µM)
MIC (Staphylococcus aureus; beta-lactamase positive, strain SSC 79-36, Table II, read-out: Minimal Inhibitory Concentration): 2 µg/mL (≈ 4.68 µM)
MIC (Staphylococcus aureus; beta-lactamase positive, strain SSC 79-38, Table II, read-out: Minimal Inhibitory Concentration): 2 µg/mL (≈ 4.68 µM)
MIC (Staphylococcus aureus; beta-lactamase positive, strain SSC 79-39, Table II, read-out: Minimal Inhibitory Concentration): 4 µg/mL (≈ 9.36 µM)
MIC (Staphylococcus aureus; beta-lactamase positive, strain SSC 79-41, Table II, read-out: Minimal Inhibitory Concentration): 4 µg/mL (≈ 9.36 µM)
MIC (Staphylococcus aureus; beta-lactamase positive, strain SSC 79-44, Table II, read-out: Minimal Inhibitory Concentration): 2 µg/mL (≈ 4.68 µM)
MIC (Staphylococcus aureus; beta-lactamase positive, strain SSC 79-47, Table II, read-out: Minimal Inhibitory Concentration): 2 µg/mL (≈ 4.68 µM)
Compound: CO[C@@]1(NC(=O)Cc2cccs2)C(=O)N2C(C(=O)O)=C(COC(N)=O)CS[C@@H]21 [Compound VI, Cefoxitin]

Compound: CO/N=C(\C(=O)N[C@@H]1C(=O)N2C(C(=O)O)=C(CSc3snnc3C)CS[C@H]12)c1csc(N)n1 [Compound Ib(i), 7-β-[α-syn-methoxyimino-α-(2-aminothiazol-4-yl)acetamido]-3-[(1,2,3-thiadiazol-4-methyl-5-ylthio)methyl]-3-cephem-4-carboxylic acid]
MIC (Proteus morganii): ≤ 0.03 µg/mL
MIC (Proteus rettgeri): ≤ 0.03 µg/mL
MIC (Klebsiella pneumoniae; Klebsiella pneumoniae, strain STFD-79-6, read-out: Minimal Inhibitory Concentration): ≤ 0.03 µg/mL
Minimal Inhibitory Concentration (Klebsiella pneumoniae; strain AD): ≤ .03 µg/mL
Minimal Inhibitory Concentration (Klebsiella pneumoniae; strain SSC-78-1): ≤ .03 µg/mL
MIC (Staphylococcus aureus; strain FU-79-19-2, Table III, read-out: Minimal Inhibitory Concentration): 0.5 µg/mL (≈ 0.948 µM)
MIC (Staphylococcus aureus; strain SSC-79-18, Table III, read-out: Minimal Inhibitory Concentration): 0.25 µg/mL (≈ 0.474 µM)
MIC (Staphylococcus aureus; strain SSC-80-15, Table III, read-out: Minimal Inhibitory Concentration): 1 µg/mL (≈ 1.9 µM)
MIC (Staphylococcus aureus; strain Smith, Table III, read-out: Minimal Inhibitory Concentration): 0.25 µg/mL (≈ 0.474 µM)
MIC (Enterobacter cloacae): 0.25 µg/mL (≈ 0.474 µM)
MIC (Pseudomonas aeruginosa; ATCC27853, strain ATCC 27853, Table III): 64 µg/mL (≈ 121 µM)
MIC (Pseudomonas aeruginosa; strain 12-4-4, Table III): 64 µg/mL (≈ 121 µM)
MIC (Pseudomonas aeruginosa; strain SSC-78-13, Table III): 64 µg/mL (≈ 121 µM)
MIC (Salmonella sp.): 1 µg/mL (≈ 1.9 µM)
MIC (Micrococcus luteus): ≤ 0.03 µg/mL
MIC (Serratia marcescens; strain QHC-77-2, Table III): 2 µg/mL (≈ 3.79 µM)
MIC (Serratia marcescens; strain TUL-78-15, Table III): 2 µg/mL (≈ 3.79 µM)
MIC (Salmonella (arizona)): 0.06 µg/mL (≈ 0.114 µM)
MIC (Enterobacter aerogenes): 0.12 µg/mL (≈ 0.227 µM)
MIC (Acinetobacter sp.; strain K-77-1, Table III): 4 µg/mL (≈ 7.58 µM)
MIC (Acinetobacter sp.; strain STFD-79-17, Table III): 32 µg/mL (≈ 60.6 µM)
MIC (Enterococcus sp.; Enterococcus, strain OSU-75-1, read-out: Minimal Inhibitory Concentration): 8 µg/mL (≈ 15.2 µM)
Minimal Inhibitory Concentration (Enterococcus sp.; strain SM-77-15): 8 µg/mL
MIC (Escherichia coli; ATCC25922, strain ATCC 25922, Table III): ≤ 0.03 µg/mL
MIC (Escherichia coli; strain #311, Table III): 0.06 µg/mL (≈ 0.114 µM)
MIC (Escherichia coli; strain ESS 22-31, Table III): ≤ 0.03 µg/mL
MIC (Escherichia coli; strain STFD-79-20, Table III): ≤ 0.03 µg/mL
